Experimental data from paper PMC10301432, “Antiplasmodial, Trypanocidal, and Genotoxicity In Vitro Assessment of New Hybrid α,α-Difluorophenylacetamide-statin Derivatives” (Pharmaceuticals, 2023).
“Also recorded” adds a separate entry of the source.

What was measured:
[1] = test system: Salmonella enterica serovar Typhimurium TA104; assay: Salmonella/microsome assay, TA104
Method: (§1) Salmonella enterica serovar Typhimurium (S. typhimurium) strains TA97, TA98, TA100, TA104 and TA102 from the authors’ stock were used as described in the mutagenicity assay.
(§2) To determine the cytotoxic effects, after 30 min pre-incubation, the assay mixtures were diluted in 0.9% NaCl (w/v) to obtain a suspension containing 2 × 10^2 cells/mL. […] The plates were then incubated at 37 °C for 24 h and the colonies counted. All the experiments were conducted in triplicate and were repeated at least twice. Statistical differences between the groups were analyzed by a two-way ANOVA (p < 0.05) and Tukey’s post hoc test.

[2] = Salmonella/microsome assay, TA104; conditions: Salmonella enterica serovar Typhimurium, S. typhimurium TA104 with S9 mix, LC50 (bacterial cytotoxicity) TA104, presence of S9 mix
Method: as §1, §2

[3] = test system: human hepatoma cell line (HepG2); assay: in vitro; format: cell-based; conditions: preliminary cytotoxicity, HepG2
Outline: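 Cells grown in MEM with 10% FBS at 37 °C, 5% CO2, and seeded at 1 × 10^4/well. After treatment, viability read by WST-1 over 3 h incubation, absorbance at 440 nm.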

[4] = test system: intracellular forms of T. cruzi (Tulahuen strain transfected with β-galactosidase); assay: Activity against intracellular T. cruzi in L929 cells; format: cell-based, Trypanosoma cruzi; conditions: for EC50: intracellular forms, Tulahuen strain
Method: Tissue culture-derived trypomastigotes (Tulahuen strain expressing the E. coli β-galactosidase gene) were maintained in L929 cell lines and collected from the supernatant after 96 h of parasite infection, following previously established protocols. Briefly, after 24 h of L929 platting (4 × 10^3 cells/well), the cultures were incubated with trypomastigotes (10:1 parasite/host cell ratio) for 2 h at 37 °C. Then, the cell cultures were rinsed to remove non-internalized parasites and then further incubated for 24 h at 37 °C. Then the infected cultures were followed using two sequential protocols. […] After this period, 50 µL chlorophenol red glycoside (500 µM) in 0.5% Nonidet P40 was added to each well and the plate was incubated for more than 18 h at 37 °C, after which the absorbance was measured at 570 nm. […] Controls with untreated and Bz-treated cells are run in parallel. The results were expressed as the percent difference in the reduction between treated and untreated cells.

[5] = test system: trypomastigote forms of T. cruzi (Y strain); assay: Trypanocidal activity on bloodstream trypomastigotes; format: cell-based, Trypanosoma cruzi; conditions: for EC50: Trypanosoma cruzi, bloodstream trypomastigotes, Y strain, 24 h at 37 °C
Method: (§3) Bloodstream trypomastigote forms (BT) of the Y strain were obtained from infected albino Swiss mice at the peak of parasitemia, isolated by differential centrifugation and resuspended in DMEM to a parasite concentration of 10^7 cells/mL in the presence of 10% of mouse blood. This suspension (100 µL) was added in the same volume of 13 (a–d) and 14 (a–d) previously prepared at twice the desired final concentrations.

[6] = test system: Salmonella enterica serovar Typhimurium TA98; assay: Salmonella/microsome assay, TA98
Method: as §1, §2

T. cruzi = assay: Trypanocidal in vitro phenotypic screening, overall outcome; format: cell-based, Trypanosoma cruzi; conditions: summarized outcome
Method: as §3
Tissue culture-derived trypomastigotes (Tulahuen strain expressing the E. coli β-galactosidase gene) were maintained in L929 cell lines and collected from the supernatant after 96 h of parasite infection, following previously established protocols. Briefly, after 24 h of L929 platting (4 × 10^3 cells/well), the cultures were incubated with trypomastigotes (10:1 parasite/host cell ratio) for 2 h at 37 °C. Then, the cell cultures were rinsed to remove non-internalized parasites and then further incubated for 24 h at 37 °C. Then the infected cultures were followed using two sequential protocols. […] After this period, 50 µL chlorophenol red glycoside (500 µM) in 0.5% Nonidet P40 was added to each well and the plate was incubated for more than 18 h at 37 °C, after which the absorbance was measured at 570 nm. Then, the compounds were next evaluated using dose–response assays in which Tulahuen-infected-L929 cells were exposed to different non-toxic concentrations of each compound (0–50 µM) and then after 96 h of incubation the same procedure was conducted as above reported. Controls with untreated and Bz-treated cells are run in parallel. The results were expressed as the percent difference in the reduction between treated and untreated cells.

[7] = test system: Salmonella enterica serovar Typhimurium TA100; assay: Salmonella/microsome assay, TA100
in vitro = conditions: Salmonella enterica serovar Typhimurium, pH 7.4
[8] = Trypanosoma cruzi, TULAHUEN, L929, 96 h, 96 h

## CC(=O)Nc1ccc(Cl)cc1C(F)(F)C(=O)NCC[C@@H]1C[C@H](CC(=O)OC(C)(C)C)OC(C)(C)O1 [Compound 13c, tert-Butyl 2-((4R,6R)-6-(2-(2-(2-acetamido-5-chlorophenyl)-2,2-difluoroacetamido)ethyl)-2,2-dimethyl-1,3-dioxan-4-yl)acetate]
[1]; +S9, 3 µM
  revertant His+ colonies TA104: 384 ± 34
[1]; +S9, 15 µM
  revertant His+ colonies TA104: 401 ± 31
[1]; +S9, 30 µM
  revertant His+ colonies TA104: 445 ± 49
[1]; +S9, 150 µM
  revertant His+ colonies TA104: 305 ± 7
[1]; +S9, 300 µM
  revertant His+ colonies TA104: 297 ± 4
[1]; +S9, 1500 µM
  revertant His+ colonies TA104: Cytotoxic
[1]; read-out: LC50 (bacterial cytotoxicity) TA104, presence of S9 mix
  CC50: > 1200 µM
[1]; −S9, 3 µM
  revertant His+ colonies TA104: 195 ± 9
[1]; −S9, 15 µM
  revertant His+ colonies TA104: 199 ± 7
[1]; −S9, 30 µM
  revertant His+ colonies TA104: 192 ± 3
[1]; −S9, 150 µM
  revertant His+ colonies TA104: 201 ± 17
[1]; −S9, 300 µM
  revertant His+ colonies TA104: 206 ± 8
[1]; −S9, 1500 µM
  revertant His+ colonies TA104: 241 ± 10
[2]
  CC50 at 30 min: 1390 ± 14.8 µM
[3]
  lack of toxic events up to: up to 400 μM
[4]; LC50 (L929)/EC50 (intracellular forms)
  SI: 16.7
[4]; [8]
  EC50: 9.24 ± 1.06 µM
[5]; LC50 (cardiac cells)/EC50 (trypomastigotes)
  SI: >17.7
[5]
  EC50: 28.2 ± 0.75 µM
[6]; +S9, 3 µM
  revertant His+ colonies TA98: 34 ± 4
[6]; +S9, 15 µM
  revertant His+ colonies TA98: 35 ± 3
[6]; +S9, 30 µM
  revertant His+ colonies TA98: 39 ± 3
[6]; +S9, 150 µM
  revertant His+ colonies TA98: 37 ± 7
[6]; +S9, 300 µM
  revertant His+ colonies TA98: 47 ± 4
[6]; +S9, 1500 µM
  revertant His+ colonies TA98: 49 ± 5
[6]; −S9, 3 µM
  revertant His+ colonies TA98: 21 ± 2
[6]; −S9, 15 µM
  revertant His+ colonies TA98: 21 ± 5
[6]; −S9, 30 µM
  revertant His+ colonies TA98: 21 ± 3
[6]; −S9, 150 µM
  revertant His+ colonies TA98: 21 ± 2
[6]; −S9, 300 µM
  revertant His+ colonies TA98: 21 ± 1
[6]; −S9, 1500 µM
  revertant His+ colonies TA98: 23 ± 4
T. cruzi
  Trypanocidal Activity: Yes
[7]; +S9, 3 µM
  revertant His+ colonies TA100: 223 ± 39
[7]; +S9, 15 µM
  revertant His+ colonies TA100: 223 ± 47
[7]; +S9, 30 µM
  revertant His+ colonies TA100: 228 ± 17
[7]; +S9, 150 µM
  revertant His+ colonies TA100: 278 ± 5
[7]; +S9, 300 µM
  revertant His+ colonies TA100: 286 ± 18
[7]; +S9, 1500 µM
  revertant His+ colonies TA100: 300 ± 15
[7]; −S9, 3 µM
  revertant His+ colonies TA100: 135 ± 38
[7]; −S9, 15 µM
  revertant His+ colonies TA100: 135 ± 21
[7]; −S9, 30 µM
  revertant His+ colonies TA100: 135 ± 30
[7]; −S9, 150 µM
  revertant His+ colonies TA100: 140 ± 31
[7]; −S9, 300 µM
  revertant His+ colonies TA100: 164 ± 17
[7]; −S9, 1500 µM
  revertant His+ colonies TA100: 168 ± 15

## CC(=O)Nc1ccccc1C(F)(F)C(=O)NCC[C@@H]1C[C@H](CC(=O)OC(C)(C)C)OC(C)(C)O1 [Compound 13a, tert-Butyl 2-((4R,6R)-6-(2-(2-(2-acetamidophenyl)-2,2-difluoroacetamido)ethyl)-2,2-dimethyl-1,3-dioxan-4-yl)acetate]
[1]; +S9, 3 µM
  revertant His+ colonies TA104: 390 ± 49
[1]; +S9, 15 µM
  revertant His+ colonies TA104: 417 ± 15
[1]; +S9, 30 µM
  revertant His+ colonies TA104: 467 ± 19
[1]; +S9, 150 µM
  revertant His+ colonies TA104: 330 ± 9
[1]; +S9, 300 µM
  revertant His+ colonies TA104: 268 ± 37
[1]; +S9, 1500 µM
  revertant His+ colonies TA104: Cytotoxic
[1]; −S9, 3 µM
  revertant His+ colonies TA104: 264 ± 27
[1]; −S9, 15 µM
  revertant His+ colonies TA104: 307 ± 18
[1]; −S9, 30 µM
  revertant His+ colonies TA104: 314 ± 26
[1]; −S9, 150 µM
  revertant His+ colonies TA104: 315 ± 36
[1]; −S9, 300 µM
  revertant His+ colonies TA104: 316 ± 33
[1]; −S9, 1500 µM
  revertant His+ colonies TA104: 350 ± 21
[2]
  CC50 at 30 min: 1280 ± 21.1 µM
[4]; [8]
  EC50: ≥ 50 µM
[4]; fixed concentration 10 µM, 96 h
  10µM (% of Parasite Lysis): 17.92 ± 11.02%
[4]; 96 h
  EC50: > 50 µM
In vitro
  CC50: 1480 ± 56.1 µM
[5]
  EC50: > 500 µM
[6]; +S9, 3 µM
  revertant His+ colonies TA98: 25 ± 8
[6]; +S9, 15 µM
  revertant His+ colonies TA98: 25 ± 4
[6]; +S9, 30 µM
  revertant His+ colonies TA98: 26 ± 5
[6]; +S9, 150 µM
  revertant His+ colonies TA98: 27 ± 1
[6]; +S9, 300 µM
  revertant His+ colonies TA98: 33 ± 1
[6]; +S9, 1500 µM
  revertant His+ colonies TA98: 36 ± 3
[6]; −S9, 3 µM
  revertant His+ colonies TA98: 24 ± 3
[6]; −S9, 15 µM
  revertant His+ colonies TA98: 29 ± 6
[6]; −S9, 30 µM
  revertant His+ colonies TA98: 31 ± 8
[6]; −S9, 150 µM
  revertant His+ colonies TA98: 32 ± 3
[6]; −S9, 300 µM
  revertant His+ colonies TA98: 52 ± 4
[6]; −S9, 1500 µM
  revertant His+ colonies TA98: 61 ± 5
[6]; −S9, at concentrations above 300 µM
  mutagenicity to TA98: significant mutagenicity; also recorded: enhanced the number of revertants
T. cruzi
  Trypanocidal Activity: No
[7]; +S9, 3 µM
  revertant His+ colonies TA100: 211 ± 37
[7]; +S9, 15 µM
  revertant His+ colonies TA100: 223 ± 15
[7]; +S9, 30 µM
  revertant His+ colonies TA100: 241 ± 36
[7]; +S9, 150 µM
  revertant His+ colonies TA100: 244 ± 14
[7]; +S9, 300 µM
  revertant His+ colonies TA100: 270 ± 45
[7]; +S9, 1500 µM
  revertant His+ colonies TA100: 290 ± 31
[7]; −S9, 3 µM
  revertant His+ colonies TA100: 117 ± 43
[7]; −S9, 15 µM
  revertant His+ colonies TA100: 136 ± 13
[7]; −S9, 30 µM
  revertant His+ colonies TA100: 139 ± 13
[7]; −S9, 150 µM
  revertant His+ colonies TA100: 142 ± 5
[7]; −S9, 300 µM
  revertant His+ colonies TA100: 162 ± 37
[7]; −S9, 1500 µM
  revertant His+ colonies TA100: 179 ± 34
